# Source: ChEMBL document CHEMBL4020732, “Synthesis, structural characterization and biological activity of novel Knoevenagel condensates on DLD-1 human colon carcinoma” (Bioorg Med Chem Lett, 2017)
# The source made the active and inactive calls. The calls are words filed in the database; no cut-off is given here.
# Key:
# [1] = target: Superoxide dismutase 1/2 (Homo sapiens) (UniProt P00441+P04179); assay: Inhibition of SOD1/SOD2 in human DLD1 cells at 100 uM using xanthine as substrate pretreated for 24 hrs followed by substrate addition measured after 5 mins by NBT dye based spectrophotometric method; assay type: cell-based
# Chain of Superoxide dismutase 1/2 (Homo sapiens) (P00441 whole entry, looked up, one chain of several): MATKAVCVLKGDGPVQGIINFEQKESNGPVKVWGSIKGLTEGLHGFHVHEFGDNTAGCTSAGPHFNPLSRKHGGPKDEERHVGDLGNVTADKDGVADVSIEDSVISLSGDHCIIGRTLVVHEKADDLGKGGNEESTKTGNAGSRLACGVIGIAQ
# DLD-1 [2] = assay: Antioxidant activity in human DLD1 cells assessed as glutathione reactivity by measuring GSSG level per mg protein by ortho-phthalaldehyde probe based fluorescence spectrometric method (reference value: 0.69 nmol); assay type: functional
# DLD-1 [3] = assay: Antioxidant activity in human DLD1 cells assessed as ratio of reduced glutathione to oxidized glutathione by ortho-phthalaldehyde probe based fluorescence spectrometric method (reference value: 3.19 +/- 0.2); assay type: functional
# DLD-1 [4] = assay: Down regulation of MRP1 expression in human DLD1 cells at 100 uM after 24 hrs by fluorescence assay; assay type: functional, cell-based
# [5] = Antioxidant activity assessed as ABTS radical scavenging activity at 100 uM after 5 mins by spectrophotometric method; assay type: functional
# DLD-1 [6] = assay: Cytotoxicity against human DLD1 cells by MTT assay; assay type: functional, cell-based
# [7] = Glutathione reactivity assessed as rate constant for total GSH loss by UV-vis spectrophotometric method
# [8] = Antioxidant activity of the compound assessed as DPPH radical scavenging activity after 5 mins by spectrophotometric method; assay type: functional; design: unit not given here
# DLD-1 [9] = assay: Antiproliferative activity against human DLD1 cells at 100 uM after 4 to 48 hrs by Alamar blue assay; assay type: functional, cell-based
# [10] = Antioxidant activity assessed as ABTS radical scavenging activity after 5 mins by spectrophotometric method; assay type: functional; design: unit not given here
# [11] = target: T1, Extracellular superoxide dismutase [Cu-Zn] (Homo sapiens) (UniProt P08294); assay: Inhibition of SOD3 in human DLD1 cells at 100 uM using xanthine as substrate pretreated for 24 hrs followed by substrate addition after 5 mins by NBT dye based spectrophotometric method; assay type: cell-based
# T1 sequence (whole entry): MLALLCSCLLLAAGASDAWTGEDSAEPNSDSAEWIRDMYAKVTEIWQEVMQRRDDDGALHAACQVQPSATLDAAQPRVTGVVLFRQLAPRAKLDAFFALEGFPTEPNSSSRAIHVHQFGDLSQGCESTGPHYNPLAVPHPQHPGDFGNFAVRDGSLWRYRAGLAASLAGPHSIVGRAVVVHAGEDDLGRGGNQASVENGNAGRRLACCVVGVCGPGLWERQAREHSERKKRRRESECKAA
# [12] = Antioxidant activity of the compound assessed as DPPH radical scavenging activity at 1 mM after 5 mins by spectrophotometric method; assay type: functional
# DLD-1 [13] = assay: Antioxidant activity in human DLD1 cells assessed as glutathione reactivity by measuring GSH level per mg protein by ortho-phthalaldehyde probe based fluorescence spectrometric method (reference value: 2.19 +/- 0.18 nmol); assay type: functional
# [14] = target: T2, Superoxide dismutase [Mn], mitochondrial (Homo sapiens) (UniProt P04179); assay: Inhibition of mitochondrial SOD2 in human DLD1 cells at 100 uM using xanthine as substrate pretreated for 24 hrs followed by substrate addition after 5 mins by NBT dye based spectrophotometric method; assay type: cell-based
# T2 sequence (whole entry): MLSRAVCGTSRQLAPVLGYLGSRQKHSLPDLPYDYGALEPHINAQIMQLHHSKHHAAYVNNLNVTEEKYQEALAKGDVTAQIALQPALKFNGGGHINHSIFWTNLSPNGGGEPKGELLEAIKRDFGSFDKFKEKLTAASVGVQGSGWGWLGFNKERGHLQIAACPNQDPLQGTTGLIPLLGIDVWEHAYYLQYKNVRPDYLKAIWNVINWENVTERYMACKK
SMILES,inhibition [1],1/IC50 [8],IC50 [8] [µM],1/IC50 [10],IC50 [10] [µM],inhibition [11],inhibition [14],Activity (DLD-1 [2]) [nmol],Ratio (DLD-1 [3]),Activity (DLD-1 [4]),inhibition [5] [%],IC50 (DLD-1 [6]) [µM],Activity [7],Activity (DLD-1 [9]),inhibition [12] [%],Activity (DLD-1 [13]) [nmol],K [7] [L/mol/min]
CCOc1cc(/C=C/C(=O)C(=Cc2ccccc2)C(=O)/C=C/c2ccc(O)c(OCC)c2)ccc1O,Active,0.011,91.4,0.049,20.4,–,Active,0.48,6.89,Active,60.5,5.06,Active,Active,54.7,3.27,–
C/C=C(/C)C(C)=O,–,–,–,–,–,–,–,–,–,–,–,–,–,–,–,–,0.779
CCOc1ccc(C=C(C(=O)/C=C/c2ccc(O)c(OC)c2)C(=O)/C=C/c2ccc(O)c(OC)c2)cc1OCC,inactive,0.014,73,0.1,10,inactive,Active,1.88,2.28,Active,74.9,4.12,Active,Active,61.9,4.27,–
C=CC(=O)OCCCC,–,–,–,–,–,–,–,–,–,–,–,–,–,–,–,–,8.54
CCOc1cc(C=C(C(=O)/C=C/c2ccc(O)c(OCC)c2)C(=O)/C=C/c2ccc(O)c(OCC)c2)ccc1O,inactive,0.01,96.7,0.195,5.14,inactive,–,0.84,3.8,–,88.5,1.36,Active,Active,50.6,3.2,–
COc1cc(/C=C/C(=O)C(=Cc2ccccc2)C(=O)/C=C/c2ccc(O)c(OC)c2)ccc1O,inactive,0.012,84.4,0.116,8.58,inactive,–,1.4,3.19,Active,75.1,5.45,Active,Active,58.6,4.47,–
CCOc1cc(C=C(C(=O)/C=C/c2ccc(O)c(OC)c2)C(=O)/C=C/c2ccc(O)c(OC)c2)ccc1O,Active,0.01,123,0.251,3.98,inactive,–,1.02,5,Active,94.3,4.26,Active,Active,42.3,5.12,–
C#CC(=O)OCC,–,–,–,–,–,–,–,–,–,–,–,–,–,–,–,–,105

# More lines, in order of falling IC50 [8], values ahead:
inhibition [1],1/IC50 [8],IC50 [8] [µM],1/IC50 [10],IC50 [10] [µM],inhibition [11],inhibition [14],SMILES,Activity (DLD-1 [2]) [nmol],Ratio (DLD-1 [3]),Activity (DLD-1 [4]),inhibition [5] [%],IC50 (DLD-1 [6]) [µM],Activity [7],Activity (DLD-1 [9]),inhibition [12] [%],Activity (DLD-1 [13]) [nmol],K [7] [L/mol/min]
Active,0.014,72.4,0.305,3.28,–,Active,COc1cc(C=C(C(=O)/C=C/c2ccc(O)c(OC)c2)C(=O)/C=C/c2ccc(O)c(OC)c2)ccc1O,2.8,1.63,Active,97.9,5.06,Active,Active,59.1,4.56,–
Active,0.014,71,0.148,6.76,inactive,Active,COc1cc(/C=C/C(=O)C(=Cc2ccc(OC)c(OC)c2)C(=O)/C=C/c2ccc(O)c(OC)c2)ccc1O,4.21,0.93,Active,83.6,3.07,Active,Active,64.8,3.93,–
inactive,0.016,61.6,0.049,20.2,inactive,–,CCOc1cc(/C=C/C(=O)C(=Cc2ccc(OCC)c(OCC)c2)C(=O)/C=C/c2ccc(O)c(OCC)c2)ccc1O,3.24,0.65,–,71.4,3.45,Active,Active,69,2.12,–
–,0.017,60.5,0.187,5.36,inactive,–,CCOc1cc(/C=C/C(=O)C(=Cc2ccc(O)c(OC)c2)C(=O)/C=C/c2ccc(O)c(OCC)c2)ccc1O,4.3,2.27,Active,96.6,9.63,Active,Active,63,9.75,–
Active,0.019,53.2,0.088,11.3,inactive,Active,CCOc1cc(/C=C/C(=O)C(=Cc2ccc(OC)c(OC)c2)C(=O)/C=C/c2ccc(O)c(OCC)c2)ccc1O,0.49,6.59,–,80.6,42,Active,Active,73.5,3.24,–
Active,0.021,48.7,0.158,6.32,–,–,COc1cc(/C=C/C(=O)C(=Cc2ccc(O)cc2)C(=O)/C=C/c2ccc(O)c(OC)c2)ccc1O,1.2,3.99,Active,89.2,4.08,Active,Active,73.8,4.8,–
inactive,0.021,48,0.068,14.8,inactive,inactive,CCOc1cc(/C=C/C(=O)C(=Cc2ccc(O)cc2)C(=O)/C=C/c2ccc(O)c(OCC)c2)ccc1O,3.13,1.15,Active,87.7,20.3,Active,Active,74.4,3.59,–
–,0.038,26.5,0.177,5.66,–,–,COc1cc(/C=C/C(=O)CC(=O)/C=C/c2ccc(O)c(OC)c2)ccc1O [CURCUMIN],–,–,–,95,–,–,–,91.7,–,–
Active,0.04,25.2,0.275,3.63,Active,–,CCOc1cc(/C=C/C(=O)C(=Cc2ccc(O)c(O)c2)C(=O)/C=C/c2ccc(O)c(OCC)c2)ccc1O,1.16,3.78,–,98.1,5.1,Active,Active,81.2,4.41,–
–,0.041,24.5,0.156,6.4,–,–,CCOc1cc(/C=C/C(=O)CC(=O)/C=C/c2ccc(O)c(OCC)c2)ccc1O [ETHYL CURCUMIN],–,–,–,96.1,–,–,–,93.4,–,–
Active,0.097,10.3,0.455,2.2,–,–,COc1cc(/C=C/C(=O)C(=Cc2ccc(O)c(O)c2)C(=O)/C=C/c2ccc(O)c(OC)c2)ccc1O,0.5,5.17,–,98.2,17.6,inactive,Active,92.5,2.6,–
